Laboratory results: patent publication US7709482B2, “Polycyclic heteroaryl substituted triazoles useful as Axl inhibitors” (Rigel Pharmaceuticals, Inc., priority 2006, dated 2010)
pIC50: −log10 of the molar value.

Target: T1, Axl (Homo sapiens, UniProt P30530)
T1 construct: endogenous in cells; host or cells: HeLa cells
T1 sequence (P30530 26-894): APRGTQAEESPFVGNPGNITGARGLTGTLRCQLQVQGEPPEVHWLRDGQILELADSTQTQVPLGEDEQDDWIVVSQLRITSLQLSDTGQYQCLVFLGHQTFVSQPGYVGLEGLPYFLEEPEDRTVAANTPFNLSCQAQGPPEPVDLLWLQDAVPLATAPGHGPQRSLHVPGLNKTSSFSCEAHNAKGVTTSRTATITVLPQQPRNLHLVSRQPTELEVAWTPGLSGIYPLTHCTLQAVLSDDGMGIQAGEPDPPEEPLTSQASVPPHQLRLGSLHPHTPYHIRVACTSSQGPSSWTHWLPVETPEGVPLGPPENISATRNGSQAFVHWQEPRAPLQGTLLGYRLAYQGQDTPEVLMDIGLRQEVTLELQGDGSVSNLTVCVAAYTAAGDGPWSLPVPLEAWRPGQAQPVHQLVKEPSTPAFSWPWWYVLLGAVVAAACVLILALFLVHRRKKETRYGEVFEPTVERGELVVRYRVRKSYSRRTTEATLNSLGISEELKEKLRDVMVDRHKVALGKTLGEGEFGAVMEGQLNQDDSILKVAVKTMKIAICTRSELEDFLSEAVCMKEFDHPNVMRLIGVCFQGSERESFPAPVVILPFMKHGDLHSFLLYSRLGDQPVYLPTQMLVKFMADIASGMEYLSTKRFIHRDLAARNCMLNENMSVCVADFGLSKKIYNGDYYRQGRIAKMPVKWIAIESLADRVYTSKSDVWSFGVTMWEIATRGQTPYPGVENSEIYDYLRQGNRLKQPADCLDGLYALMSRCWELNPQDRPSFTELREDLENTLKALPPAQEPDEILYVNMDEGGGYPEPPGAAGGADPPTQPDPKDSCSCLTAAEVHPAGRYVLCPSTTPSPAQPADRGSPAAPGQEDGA
Assay: Phospho-Akt In-Cell Western Assay (inhibition of Axl activity after Axl-antibody cross-linking)
Format: cell-based
Conditions: Hela cells, phospho-Akt chemiluminescence normalized to relative cell number; compounds of formula (Ia), Table 1; read-out: IC50
Procedure, shortened: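 Phospho-Akt was detected in formaldehyde-fixed cells by in-cell immunostaining with HRP chemiluminescence. Before fixation, HeLa cells kept 24 h in low-serum medium containing 500 ng/mL Axl/Fc received compound for 1 h at 37 °C, followed by 5-min Axl activation through antibody clustering.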

pIC50 | Structure (SMILES)
> 6.00 | CN1CCC2(CCN(c3ccc(Nc4nc(N)n(-c5cc6c(nn5)-c5ccccc5CCC6)n4)cc3F)C2)C1 (centres unmarked) [Compound 110, 1-(6,7-dihydro-5H-benzo[6,7]cyclohepta[1,2-c]pyridazin-3-yl)-N^3-(3-fluoro-4-(7-methyl-2,7-diazaspiro[4.4]nonan-2-yl)phenyl)-1H-1,2,4-triazole-3,5-diamine]
5.00 to 6.00 | Nc1nc(Nc2ccc(N3CCC(N4CCOCC4)CC3)c(F)c2)nn1-c1cc2c(nn1)-c1ccccc1CCC2 [Compound 9, 1-(6,7-dihydro-5H-benzo[6,7]cyclohepta[1,2-c]pyridazin-3-yl)-N^3-(3-fluoro-4-(4-(morpholin-4-yl)piperidin-1-yl)phenyl)-1H-1,2,4-triazole-3,5-diamine]
5.00 to 6.00 | Nc1nc(Nc2ccc(N3CCC(N4CCCC4)CC3)c(C(F)(F)F)c2)nn1-c1cc2c(nn1)-c1ccccc1CCC2 [Compound 63, 1-(6,7-dihydro-5H-benzo[6,7]cyclohepta[1,2-c]pyridazin-3-yl)-N^3-(3-trifluoromethyl-4-(4-pyrrolidin-1-yl-piperidin-1-yl)phenyl)-1H-1,2,4-triazole-3,5-diamine]
> 6.00 | Nc1nc(Nc2ccc(OCCN3CCCC3)cc2)nn1-c1ncnc2c1CCCc1ccccc1-2 [Compound 37, 1-(6,7-dihydro-5H-benzo[6,7]cyclohepta[1,2-d]pyrimidin-4-yl)-N^3-(4-(2-(pyrrolidin-1-yl)ethoxy)phenyl)-1H-1,2,4-triazole-3,5-diamine]
> 6.00 | Nc1nc(Nc2ccc(OCCN3CCCC3)c(F)c2)nn1-c1ncc2c(n1)-c1ccccc1CCC2 [Compound 44, 1-(6,7-dihydro-5H-benzo[6,7]cyclohepta[1,2-d]pyrimidin-2-yl)-N^3-(3-fluoro-4-(2-(pyrrolidin-1-yl)ethoxy)phenyl)-1H-1,2,4-triazole-3,5-diamine]
> 6.00 | Nc1nc(Nc2ccc(N3CCCCC(N4CCCC4)C3)c(F)c2)nn1-c1cc2c(nn1)-c1ccccc1CCC2 (centres unmarked) [Compound 69, 1-(6,7-dihydro-5H-benzo[6,7]cyclohepta[1,2-c]pyridazin-3-yl)-N^3-(3-fluoro-4-(3-pyrrolidin-1-yl-azepan-1-yl)phenyl)-1H-1,2,4-triazole-3,5-diamine]
5.00 to 6.00 | Nc1nc(Nc2ccc(N3CCN(C4CC5CCC4C5)CC3)cc2)nn1-c1cc2c(nn1)-c1ccccc1CCC2 (centres unmarked) [Compound 33, 1-(6,7-dihydro-5H-benzo[6,7]cyclohepta[1,2-c]pyridazin-3-yl)-N^3-(4-(4-(bicyclo[2.2.1]heptan-2-yl)piperazin-1-yl)phenyl)-1H-1,2,4-triazole-3,5-diamine]
> 6.00 | Nc1nc(Nc2ccc(N3CCC(N4CCCC4)CC3)c(F)c2)nn1-c1cc2c(nn1)-c1ccccc1CCC2 [Compound 4]
> 6.00 | CCCN1CCC2CN(c3ccc(Nc4nc(N)n(-c5cc6c(nn5)-c5ccccc5CCC6)n4)cc3F)CCC21 (centres unmarked) [Compound 84, 1-(6,7-dihydro-5H-benzo[6,7]cyclohepta[1,2-c]pyridazin-3-yl)-N^3-(3-fluoro-4-(1-propyloctahydro-1H-pyrrolo[3,2-c]pyridine-5-yl)phenyl)-1H-1,2,4-triazole-3,5-diamine]
> 6.00 | CN(C)C1CCN(c2ccc(Nc3nc(N)n(-c4cc5c(nn4)-c4ccccc4CCC5)n3)cc2F)CC1 [Compound 61, 1-(6,7-dihydro-5H-benzo[6,7]cyclohepta[1,2-c]pyridazin-3-yl)-N^3-(3-fluoro-4-(4-dimethylaminopiperidin-1-yl)phenyl)-1H-1,2,4-triazole-3,5-diamine]
> 6.00 | Nc1nc(Nc2ccc(N3CCC(CN4CCCC4)CC3)c(F)c2)nn1-c1cc2c(nn1)-c1ccccc1CCC2 [Compound 124, 1-(6,7-dihydro-5H-benzo[6,7]cyclohepta[1,2-c]pyridazin-3-yl)-N^3-(3-fluoro-4-(4-(pyrrolidinylmethyl)-piperidinyl)phenyl)-1H-1,2,4-triazole-3,5-diamine]
> 6.00 | CN1CCN(Cc2ccc(Nc3nc(N)n(-c4cc5c(nn4)-c4ccccc4CCC5)n3)cc2)CC1 [Compound 35, 1-(6,7-dihydro-5H-benzo[6,7]cyclohepta[1,2-c]pyridazin-3-yl)-N^3-(4-((4-methylpiperazin-1-yl)methyl)phenyl)-1H-1,2,4-triazole-3,5-diamine]
> 6.00 | Nc1nc(Nc2ccc(N3CCC(N4CCCC4)CC3)c(Cl)c2)nn1-c1cc2c(nn1)-c1ccccc1CCC2 [Compound 62, 1-(6,7-dihydro-5H-benzo[6,7]cyclohepta[1,2-c]pyridazin-3-yl)-N^3-(3-chloro-4-(4-pyrrolidin-1-yl-piperidin-1-yl)phenyl)-1H-1,2,4-triazole-3,5-diamine]

Same assay, conditions: Hela cells, phospho-Akt chemiluminescence normalized to relative cell number; compounds of formula (Ib), Table 2; read-out: IC50

pIC50 | Structure (SMILES)
5.00 to 6.00 | Cc1cc(Nc2nc(N)nn2-c2cc3c(nn2)-c2ccccc2CCC3)cnc1N1CCC(N2CCCC2)CC1 [Compound 173, 1-(6,7-dihydro-5H-benzo[6,7]cyclohepta[1,2-c]pyridazin-3-yl)-N^5-(6-(4-(pyrrolidin-1-yl)piperidin-1-yl)-5-methylpyridin-3-yl)-1H-1,2,4-triazole-3,5-diamine]
< 4.70 | Nc1nc(Nc2ccc(CC3C(=O)Nc4ccc(F)cc43)cc2)n(-c2cc3c(nn2)-c2ccccc2CCC3)n1 (centres unmarked) [Compound 163, 1-(6,7-dihydro-5H-benzo[6,7]cyclohepta[1,2-c]pyridazin-3-yl)-N^5-(4-((5-fluoroindolin-2-on-3-yl)methyl)phenyl)-1H-1,2,4-triazole-3,5-diamine]
< 4.70 | Nc1nc(Nc2ccc(N3CCC(N4CCCC4)CC3)cc2)n(-c2cc3c(nn2)-c2ccccc2SCC3)n1 [Compound 172, 1-(6,7-dihydro-5H-benzo[2,3]thiepino[4,5-c]pyridazin-3-yl)-N^5-(4-(4-pyrrolidin-1-ylpiperidinyl)phenyl)-1H-1,2,4-triazole-3,5-diamine]
5.00 to 6.00 | CC(C)N1CCN(Cc2ccc(Nc3nc(N)nn3-c3cc4c(nn3)-c3ccccc3CCC4)cc2)CC1 [Compound 167, 1-(6,7-dihydro-5H-benzo[6,7]cyclohepta[1,2-c]pyridazin-3-yl)-N^5-(4-((4-isopropylpiperazinyl)methyl)phenyl)-1H-1,2,4-triazole-3,5-diamine]

Same assay, conditions: inhibition of Axl activity; Table 1, compounds of formula (Ia); read-out: IC50

pIC50 | Structure (SMILES)
5.00 to 6.00 | Nc1nc(Nc2ccc(C=CCN3CCC(N4CCCCC4)CC3)cc2)nn1-c1cc2c(nn1)-c1ccccc1CCC2 [Compound 197, 1-(6,7-dihydro-5H-benzo[6,7]cyclohepta[1,2-c]pyridazin-3-yl)-N^3-(4-(4-(piperidin-1-yl)piperidin-1-ylprop-1-enyl)phenyl)-1H-1,2,4-triazole-3,5-diamine]
> 6.00 | Nc1nc(Nc2ccc3c(c2)CCC(N2CCC(CN4CCCCC4)CC2)CC3)nn1-c1cc2c(nn1)-c1ccccc1CCC2 (centres unmarked) [Compound 233, 1-(6,7-dihydro-5H-benzo[6,7]cyclohepta[1,2-c]pyridazin-3-yl)-N^3-(7-(4-(piperidin-1-ylmethyl)piperidin-1-yl)-6,7,8,9-tetrahydro-5H-benzo[7]annulene-2-yl)-1H-1,2,4-triazole-3,5-diamine]
4.70 to 5.00 | CN1CCN(C2CCN(c3ccc(Nc4nc(N)n(-c5cc6c(nn5)-c5ccccc5OC65CCCC5)n4)cc3F)CC2)CC1 [Compound 175, 1-(spiro[chromeno[4,3-c]pyridazine-5,1′-cyclopentane]-3-yl)-N^3-(3-fluoro-4-(4-(4-methylpiperazin-1-yl)piperidin-1-yl)phenyl)-1H-1,2,4-triazole-3,5-diamine]
> 6.00 | Nc1nc(Nc2ccc(N3CCC(N4CCCC4)CC3)c(F)c2)nn1-c1cc2c(nn1)CCCc1ccccc1-2 [Compound 178, 1-(6,7-dihydro-5H-benzo[6,7]cyclohepta[4,5-c]pyridazin-2-yl)-N^3-(3-fluoro-4-(4-pyrrolidin-1-ylpiperidin-1-yl)phenyl)-1H-1,2,4-triazole-3,5-diamine]
> 6.00 | Cc1cc(Nc2nc(N)n(-c3cc4c(nn3)-c3ccccc3CCC4)n2)cnc1N1CCC(N2CCCC2)CC1 [Compound 136, 1-(6,7-dihydro-5H-benzo[6,7]cyclohepta[1,2-c]pyridazin-3-yl)-N^3-(6-(4-(pyrrolidin-1-yl)piperidin-1-yl)-5-methylpyridin-3-yl)-1H-1,2,4-triazole-3,5-diamine]
> 6.00 | Nc1nc(Nc2ccc3c(c2)CCC(N2CC[C@@H](O)C2)CC3)nn1-c1cc2c(nn1)-c1ccccc1CCC2 (stereo partly drawn) [Compound 219, 1-(6,7-dihydro-5H-benzo[6,7]cyclohepta[1,2-c]pyridazin-3-yl)-N^3-(7-(3-(R)-hydroxypyrrolidin-1-yl)-6,7,8,9-tetrahydro-5H-benzo[7]annulene-2-yl)-1H-1,2,4-triazole-3,5-diamine]
